Experimental data from the supplement of paper PMC10307832.

Experiments:
Assay in all cases: relative viability (nuclei count vs DMSO), 5 days (fraction); higher = more cells survive
Bemcentinib + Trametinib = compound: Nc1nc(Nc2ccc3c(c2)CC[C@@H](N2CCCC2)CC3)nn1-c1cc2c(nn1)-c1ccccc1CCC2 [Bemcentinib] + CC(=O)Nc1cccc(-n2c(=O)n(C3CC3)c(=O)c3c(Nc4ccc(I)cc4F)n(C)c(=O)c(C)c32)c1 [Trametinib] (partner 0.02 µM)
In short: (§1)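 Lung cancer cell lines were pin-tool dosed in 1536-well plates on the day after seeding, with either a lone drug or a fixed anchor-drug dose plus five library-drug doses (not always all listed) in √10 steps. Nuclei were counted on 4× images after 5 days. Relative viability is the ratio of treated-well to vehicle-well nuclei counts, with each value a median of duplicate plates.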

[1] = compound: Nc1nc(Nc2ccc3c(c2)CC[C@@H](N2CCCC2)CC3)nn1-c1cc2c(nn1)-c1ccccc1CCC2 [Bemcentinib] + CC(=O)c1c(C)c2cnc(Nc3ccc(N4CCNCC4)cn3)nc2n(C2CCCC2)c1=O [Palbociclib] (partner 0.5 µM)
In short: as §1

Bemcentinib + Crizotinib = compound: Nc1nc(Nc2ccc3c(c2)CC[C@@H](N2CCCC2)CC3)nn1-c1cc2c(nn1)-c1ccccc1CCC2 [Bemcentinib] + C[C@@H](Oc1cc(-c2cnn(C3CCNCC3)c2)cnc1N)c1c(Cl)ccc(F)c1Cl [Crizotinib] (partner 1 µM)
In short: as §1

[2] = compound: CC1=CC=C(C=C1)C(=O)CN2C3=C(CCCC3)SC2=N [Pifithrin_alpha] + CS(=O)(=O)CCNCc1ccc(-c2ccc3ncnc(Nc4ccc(OCc5cccc(F)c5)c(Cl)c4)c3c2)o1 [Lapatinib] (partner 2 µM)
In short: as §1

Row | Cell Line | relative viability (Bemcentinib + Trametinib; first compound 0.04 µM) | relative viability (Bemcentinib + Trametinib; first compound 0.1265 µM) | relative viability (Bemcentinib + Trametinib; first compound 0.4 µM) | relative viability (Bemcentinib + Trametinib; first compound 1.265 µM) | relative viability (Bemcentinib + Trametinib; first compound 4 µM) | relative viability ([1]; first compound 0.04 µM) | relative viability ([1]; first compound 0.1265 µM) | relative viability ([1]; first compound 0.4 µM) | relative viability ([1]; first compound 1.265 µM) | relative viability ([1]; first compound 4 µM) | relative viability (Bemcentinib + Crizotinib; first compound 0.04 µM) | relative viability (Bemcentinib + Crizotinib; first compound 0.1265 µM) | relative viability (Bemcentinib + Crizotinib; first compound 0.4 µM) | relative viability (Bemcentinib + Crizotinib; first compound 1.265 µM) | relative viability (Bemcentinib + Crizotinib; first compound 4 µM) | relative viability ([2]; first compound 1 µM) | relative viability ([2]; first compound 3.162 µM) | relative viability ([2]; first compound 10 µM) | relative viability ([2]; first compound 31.62 µM) | relative viability ([2]; first compound 100 µM)
1 | NCI-H3122 | 0.25 | 0.248 | 0.214 | 0.252 | 0.244 | 0.148 | 0.192 | 0.155 | 0.192 | 0.201 | 0.257 | 0.157 | 0.262 | 0.31 | 0.293 | 1.11 | 1.04 | 1.05 | 0.837 | 1.01
2 | SK-MES-1 | 0.625 | 0.587 | 0.561 | 0.587 | 0.61 | 0.314 | 0.33 | 0.325 | 0.316 | 0.317 | 1.03 | 0.955 | 0.998 | 1.14 | 1.06 | 0.461 | 0.447 | 0.458 | 0.439 | 0.447
3 | NCI-H1650 | 0.483 | 0.684 | 0.617 | 0.594 | 0.459 | 0.324 | 0.366 | 0.307 | 0.354 | 0.373 | 0.887 | 0.998 | 1.05 | 0.973 | 0.814 | 0.395 | 0.665 | 0.739 | 0.521 | 0.839
4 | NCI-H2170 | 0.94 | 0.967 | 0.92 | 0.968 | 0.936 | 0.394 | 0.415 | 0.395 | 0.422 | 0.407 | 1.36 | 1.36 | 1.21 | 1.38 | 1.31 | 0.263 | 0.274 | 0.287 | 0.266 | 0.263
